From ChEMBL document CHEMBL2010699, “Novel substituted 9-norbornylpurines and their activities against RNA viruses” (Bioorg Med Chem Lett, 2012)
Converted amounts (≈) assume the structure as drawn. The source made the active and inactive calls. No cut-off for these calls is given here.

Assays:
[1] = Solubility of the compound in water at 20 degC by UV spectrophotometry; format: physicochemical
Hepatitis C virus = test: Antiviral activity against Hepatitis C virus assessed as suppression of viral replication; format: functional, organism-based; conditions: Hepacivirus hominis
Chikungunya virus = test: Antiviral activity against Chikungunya virus assessed as suppression of viral replication; format: functional
Coxsackievirus B3 [2] = test: Antiviral activity against Coxsackievirus B3 infected in african green monkey Vero cells assessed as inhibition virus-induced cell death by MTS assay; format: functional, organism-based; conditions: Enterovirus B
[3] = Cytotoxicity against african green monkey Vero cells assessed as inhibition of host metabolism by MTS assay; format: cell-based; conditions: chlorocebus sabaeus
Coxsackievirus B3 [4] = test: Antiviral activity against Coxsackievirus B3 infected in african green monkey vero cells assessed as inhibition of virus-induced cytopathic effect by microscopic estimation; format: functional, organism-based
[5] = Selectivity index, ratio of CC50 for african green monkey Vero cells to EC50 for Coxsackievirus B3; format: toxicity, cell-based; conditions: read-out: Ratio CC50/EC50
Vero = test: Cytotoxicity against african green monkey Vero cells assessed as change in morphology of the cells by microscopic analysis; format: cell-based; conditions: chlorocebus sabaeus

Row | SMILES | solubility [1] | Activity (Hepatitis C virus) | Activity (Chikungunya virus) | EC50 (Coxsackievirus B3 [2]) | EC90 (Coxsackievirus B3 [2]) | CC50 [3] | Activity (Coxsackievirus B3 [4]) | selectivity ratio [5] | Activity (Vero)
1 | Clc1ncnc2c1ncn2C1CC2CCC1C2 (stereo unspecified) | 530 µg/mL (≈ 2.13 mM) | – | – | – | – | – | – | – | –
2 | CO[C@H]1C[C@H]2C[C@@H]1C[C@@H]2n1cnc2c(Cl)ncnc21 (relative stereo) | – | inactive | inactive | 27 µM | 37 µM | > 718 µM | Active | > 27 | Non-toxic
3 | O=C(OC1CC2CC1CC2n1cnc2c(Cl)ncnc21)c1ccccc1 (stereo unspecified) | – | inactive | inactive | > 150 µM | > 150 µM | > 542 µM | – | – | –
4 | OCCO[C@@H]1C[C@H]2C[C@@H]1[C@H](n1cnc3c(Cl)ncnc31)C2 (relative stereo) | 4690 µg/mL (≈ 15.2 mM) | inactive | inactive | 13 µM | 22 µM | > 648 µM | Active | > 50 | Non-toxic
5 | OCCOCCO[C@H]1C[C@H]2C[C@@H]1C[C@@H]2n1cnc2c(Cl)ncnc21 (relative stereo) | 7460 µg/mL (≈ 21.1 mM) | inactive | inactive | 42 µM | 60 µM | > 567 µM | Active | > 14 | Non-toxic
6 | CCCCCCCCCC(=O)O[C@H]1C[C@H]2C[C@@H]1[C@H](n1cnc3c(Cl)ncnc31)C2 (relative stereo) | – | inactive | inactive | > 44 µM | > 44 µM | 44 µM | – | < 1 | –
7 | Clc1ncnc2c1ncn2[C@H]1C[C@H]2C[C@@H]1C[C@@H]2Oc1ccccc1 (relative stereo) | – | inactive | inactive | > 50 µM | > 50 µM | 50 µM | – | < 1 | –
8 | OCCCCCO[C@H]1C[C@H]2C[C@@H]1C[C@@H]2n1cnc2c(Cl)ncnc21 (relative stereo) | – | inactive | inactive | 22 µM | 30 µM | > 570 µM | Active | > 26 | Non-toxic
9 | O=C(OC1CC2CC1C(n1cnc3c(Cl)ncnc31)C2)c1ccccc1 (stereo unspecified) | – | inactive | inactive | 35 µM | > 45 µM | 45 µM | – | 1.3 | –
10 | OCCO[C@H]1C[C@H]2C[C@@H]1[C@H](n1cnc3c(Cl)ncnc31)C2 (relative stereo) | – | inactive | inactive | 29 µM | 37 µM | > 648 µM | Active | > 22 | Non-toxic
11 | OCCO[C@H]1C[C@H]2C[C@@H]1C[C@@H]2n1cnc2c(Cl)ncnc21 (relative stereo) | – | inactive | inactive | 37 µM | – | > 648 µM | Active | > 18 | Non-toxic
12 | OCCO[C@@H]1C[C@H]2C[C@@H]1C[C@@H]2n1cnc2c(Cl)ncnc21 (relative stereo) | 4570 µg/mL (≈ 14.8 mM) | inactive | inactive | 16 µM | 32 µM | > 648 µM | Active | > 41 | Non-toxic
13 | CCCCCCCC(=O)O[C@H]1C[C@H]2C[C@@H]1[C@H](n1cnc3c(Cl)ncnc31)C2 (relative stereo) | – | inactive | inactive | > 50 µM | > 50 µM | 50 µM | – | < 1 | –
14 | C[C@@]1(O)[C@H](O)[C@@H](CO)O[C@H]1n1ccc(N)nc1=O | – | – | – | 94 µM | 179 µM | – | – | – | –
15 | CCCCCCCC(=O)O[C@H]1C[C@H]2C[C@@H]1C[C@@H]2n1cnc2c(Cl)ncnc21 (relative stereo) | – | inactive | inactive | > 52 µM | > 52 µM | 52 µM | – | < 1 | –
16 | CCCCCCCCCC(=O)O[C@H]1C[C@H]2C[C@@H]1C[C@@H]2n1cnc2c(Cl)ncnc21 (relative stereo) | – | inactive | inactive | 32 µM | > 47 µM | 47 µM | Active | 1.5 | Non-toxic
17 | Clc1ncnc2c1ncn2[C@H]1C[C@H]2C[C@@H]1C[C@@H]2OC1CCCCC1 (relative stereo) | – | inactive | inactive | > 22 µM | > 22 µM | 22 µM | – | < 1 | –
18 | CCCCCCO[C@H]1C[C@H]2C[C@@H]1C[C@@H]2n1cnc2c(Cl)ncnc21 (relative stereo) | – | inactive | inactive | > 27 µM | > 27 µM | 27 µM | – | < 1 | –
19 | OCCCO[C@H]1C[C@H]2C[C@@H]1C[C@@H]2n1cnc2c(Cl)ncnc21 (relative stereo) | – | inactive | inactive | 47 µM | – | > 620 µM | Active | > 13 | Non-toxic
20 | CCCCCC(=O)O[C@H]1C[C@H]2C[C@@H]1[C@H](n1cnc3c(Cl)ncnc31)C2 (relative stereo) | – | inactive | inactive | > 70 µM | > 70 µM | 70 µM | – | < 1 | –
21 | Oc1ccc(O[C@H]2C[C@H]3C[C@@H]2C[C@@H]3n2cnc3c(Cl)ncnc32)cc1 (relative stereo) | – | inactive | inactive | 58 µM | – | 217 µM | – | 3.7 | –
22 | Clc1ncnc2c1ncn2[C@@H]1C[C@@H]2C[C@H]1[C@@H](Oc1ccccc1)C2 (relative stereo) | – | inactive | inactive | > 150 µM | > 150 µM | > 587 µM | – | – | –
23 | OCCCCO[C@H]1C[C@H]2C[C@@H]1C[C@@H]2n1cnc2c(Cl)ncnc21 (relative stereo) | – | inactive | inactive | 37 µM | 53 µM | > 594 µM | Active | > 16 | Non-toxic
24 | CCCCCC(=O)O[C@H]1C[C@H]2C[C@@H]1C[C@@H]2n1cnc2c(Cl)ncnc21 (relative stereo) | – | inactive | inactive | 34 µM | 56 µM | 60 µM | Active | 1.8 | Non-toxic
25 | CCCCCO[C@H]1C[C@H]2C[C@@H]1C[C@@H]2n1cnc2c(Cl)ncnc21 (relative stereo) | – | inactive | inactive | 21 µM | > 32 µM | 32 µM | – | 1.5 | –
